Assay results from US20240226228A1, “ANTIMICROBIAL PEPTOID HAVING IMPROVED SELECTIVITY AND ANTIMICROBIAL COMPOSITION COMPRISING SAME” (priority 2021, published 2024).
In brackets after ≈: the same amount, converted by molar mass. Like-named read-outs stand apart in the source and are kept apart here. Where a SMILES comes first, the peptide text is derived from it. [ ]: non-standard residue; d: D form. Gly(N(CH2)2(3-indolyl)) = O=C(O)CNCCc1c[nH]c2ccccc12; Gly(N-CH2CH2-imidazol-4-yl) = O=C(O)CNCCc1c[nH]cn1; Nspe = C[C@H](NCC(=O)O)c1ccccc1; Nphe = O=C(O)CNCc1ccccc1; Nlys = NCCCCNCC(=O)O

What was measured:
[1] = test system: red blood cells; test: Hemolysis assay; type: cell-based, Sprague-Dawley mouse
Method in brief: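 Peptoid is mixed with 10% (v/v) PBS-washed erythrocytes (male Sprague-Dawley […], 13 weeks) and held 1 h at 37 °C. Hemolysis is calculated from 540 nm absorbance of the supernatant, with PBS as 0% and Triton X-100 as 100%.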

[2] = test system: E. coli ATCC25922
Method: (§1) To measure the antimicrobial activity of the peptoids synthesized in Example 1, an E. coli ATCC25922 strain as gram-negative bacteria and an S. aureus KCTC25923 strain as gram-positive bacteris, were treated with the peptoids, followed by measuring the minimum inhibitory concentration (MIC). Peptoids 1 and 2 are antimicrobial peptoids known in the art, and used as controls for comparing antimicrobial activity with a novel peptoid.
(§2) Specifically, the S. aureus KCTC25923 or E. coli ATCC25922 strain was inoculated into a Mueller Hinton Broth (MHB2) liquid medium in which cations had been adjusted in the medium, cultured at 37° C. for 18 hours, subcultured, and then incubated for 4 hours. Afterward, for each bacterial strain, an optical density (OD, 0.001) was adjusted so that the bacterial count became 2×10^5 to 5×10^5 colony-forming units (CFU) per mL, which was then diluted with a MHB2 liquid medium containing 0.02% bovine serum albumin and 0.001% acetic acid, and dispensed at 100 μL into a 96-well microplate. Using sterile water, a peptoid stock 40 times stronger than a concentration to be tested was subjected to two-fold serial dilution and assessed at six different concentrations, and the maximum value of the peptoid concentrations was 25 μM. Subsequently, the plate was incubated at 37° C. for 24 hours. Afterward, optical density (OD) values at 600 nm were measured using a microplate reader (Bio-Rad).
(§3) Each MIC value was determined as the average value of a value obtained through three independent experiments.
(§4) Referring to Table 22, to measure the antimicrobial activity of the peptoids synthesized in Example 3, an MIC was measured by treating gram-negative bacteria, that is, the E. coli ATCC25922 strain, and gram-positive bacteria, that is, the S. aureus ATCC25923 strain, with the peptoids. Here, Peptoid 1 is a conventionally known antimicrobial peptoid, and Omiganan is a derivative of indolicidin, which is an antimicrobial peptide, under clinical development, and was used as a control for comparing antimicrobial activity with the novel peptoid.

[3] = test system: S. aureus ATCC 25923
Method: as §1, §2, §3, §4

[4] = Table 18, TFA salt vs counter ion-substituted (HCl, AcOH) peptoids
[5] = Tables 11-13, 24 hours at 37° C., maximum concentration 25 μM

SMILES	HC10 [1]	HC50 [1]	Hmax (100 μM) [1]	MIC E. coli ATCC25922 [2, 4] [µM]	MIC S. aureus ATCC 25923 [3, 4] [µM]	MIC E. coli ATCC25922 [2, 5] [µM]	MIC S. aureus ATCC 25923 [3, 5] [µM]	HD10 [1]	HD50 [1]	MIC E. coli ATCC25922 ([2]; ATCC25922) [µM]	MIC S. aureus ATCC 25923 ([3]; ATCC 25923) [µM]
C[C@@H](c1ccccc1)N(CC(N)=O)C(=O)CN(C(=O)CN(CCCCN)C(=O)CN(C(=O)CN(C(=O)CN(CCCCN)C(=O)CN(C(=O)CN(C(=O)CN(CCCCN)C(=O)CN(CCc1c[nH]c2ccccc12)C(=O)CN(C(=O)CNCCCCN)[C@@H](C)c1ccccc1)[C@@H](C)c1ccccc1)[C@@H](C)c1ccccc1)[C@@H](C)c1ccccc1)[C@@H](C)c1ccccc1)[C@@H](C)c1ccccc1 [Peptoid 10-1]	15.3 µM	37.8 µM	81.5 ± 7.4%	6.3	3.1						
C[C@@H](c1ccccc1)N(CC(N)=O)C(=O)CN(C(=O)CN(CCCCN)C(=O)CN(C(=O)CN(C(=O)CN(CCCCN)C(=O)CN(C(=O)CN(C(=O)CN(CCCCN)C(=O)CN(Cc1ccccc1)C(=O)CN(Cc1ccccc1)C(=O)CNCCCCN)[C@@H](C)c1ccccc1)[C@@H](C)c1ccccc1)[C@@H](C)c1ccccc1)[C@@H](C)c1ccccc1)[C@@H](C)c1ccccc1 [Peptoid 46]	6.9 µM	36.5 µM	90.8 ± 2.7%			6.3 (≈ 11.3 µg/mL)	0.8 (≈ 1.43 µg/mL)				
C[C@@H](c1ccccc1)N(CC(N)=O)C(=O)CN(CCCCN)C(=O)CN(CCc1c[nH]cn1)C(=O)CN(C(=O)CN(C(=O)CN(CCCCN)C(=O)CN(C(=O)CN(C(=O)CN(CCCCN)C(=O)CN(CCc1c[nH]c2ccccc12)C(=O)CN(CCc1c[nH]c2ccccc12)C(=O)CNCCCCN)[C@@H](C)c1ccccc1)[C@@H](C)c1ccccc1)[C@@H](C)c1ccccc1)[C@@H](C)c1ccccc1 [Peptoid 75] (H-[Nlys][Gly(N(CH2)2(3-indolyl))][Gly(N(CH2)2(3-indolyl))][Nlys][Nspe][Nspe][Nlys][Nspe][Nspe][Gly(N-CH2CH2-imidazol-4-yl)][Nlys][Nspe]-NH2)			18.3 ± 1.1					68.0	> 100.0	6.3 (≈ 11.9 µg/mL)	6.3 (≈ 11.9 µg/mL)
C[C@@H](c1ccccc1)N(CC(N)=O)C(=O)CN(C(=O)CN(CCCCN)C(=O)CN(C(=O)CN(C(=O)CN(CCCCN)C(=O)CN(CCc1c[nH]c2ccccc12)C(=O)CN(C(=O)CN(CCCCN)C(=O)CN(C(=O)CN(C(=O)CNCCCCN)[C@@H](C)c1ccccc1)[C@@H](C)c1ccccc1)[C@@H](C)c1ccccc1)[C@@H](C)c1ccccc1)[C@@H](C)c1ccccc1)[C@@H](C)c1ccccc1 [Peptoid 9]	10.6 µM	31.9 µM	106.4 ± 0.6%			3.1 (≈ 5.76 µg/mL)	1.6 (≈ 2.97 µg/mL)				
C[C@@H](c1ccccc1)N(CC(N)=O)C(=O)CN(CCCCN)C(=O)CN(CCCCN)C(=O)CN(C(=O)CN(C(=O)CN(CCCCN)C(=O)CN(CCc1c[nH]c2ccccc12)C(=O)CN(C(=O)CN(CCCCN)C(=O)CN(C(=O)CN(C(=O)CNCCCCN)[C@@H](C)c1ccccc1)[C@@H](C)c1ccccc1)[C@@H](C)c1ccccc1)[C@@H](C)c1ccccc1)[C@@H](C)c1ccccc1 [Peptoid 24]	>100/>100 μM	>100/>100 μM	1.5 ± 0.0%			>25	6.3 (≈ 11.5 µg/mL)				
C[C@@H](c1ccccc1)N(CC(=O)N(CCCCN)CC(=O)N(CCc1c[nH]c2ccccc12)CC(=O)N(CCc1c[nH]c2ccccc12)CC(N)=O)C(=O)CN(CCc1c[nH]cn1)C(=O)CN(CCCCN)C(=O)CN(C(=O)CN(C(=O)CN(CCCCN)C(=O)CN(C(=O)CN(C(=O)CNCCCCN)[C@@H](C)c1ccccc1)[C@@H](C)c1ccccc1)[C@@H](C)c1ccccc1)[C@@H](C)c1ccccc1 [Peptoid 78] (H-[Nlys][Nspe][Nspe][Nlys][Nspe][Nspe][Nlys][Gly(N-CH2CH2-imidazol-4-yl)][Nspe][Nlys][Gly(N(CH2)2(3-indolyl))][Gly(N(CH2)2(3-indolyl))]-NH2)			5.2 ± 0.2					>100.0/>100.0	>100.0/>100.0	6.3 (≈ 11.9 µg/mL)	6.3 (≈ 11.9 µg/mL)
C[C@@H](c1ccccc1)N(CC(N)=O)C(=O)CN(C(=O)CN(CCCCN)C(=O)CN(C(=O)CN(C(=O)CN(CCCCN)C(=O)CN(C(=O)CN(CCCCN)C(=O)CN(CCCCN)C(=O)CN(CCc1c[nH]c2ccccc12)C(=O)CN(CCc1c[nH]c2ccccc12)C(=O)CNCCCCN)[C@@H](C)c1ccccc1)[C@@H](C)c1ccccc1)[C@@H](C)c1ccccc1)[C@@H](C)c1ccccc1 [Peptoid 34]	>100/>100 μM	>100/>100 μM	8.5 ± 1.1%			25 (≈ 46.6 µg/mL)	3.1 (≈ 5.78 µg/mL)				
C[C@@H](c1ccccc1)N(CC(=O)N(CCCCN)CC(=O)N(CC(=O)N(CC(=O)N(CCCCN)CC(=O)N(CC(=O)N(CC(=O)N(CCCCN)CC(=O)N(CC(=O)N(CC(N)=O)Cc1ccccc1)Cc1ccccc1)[C@@H](C)c1ccccc1)[C@@H](C)c1ccccc1)[C@@H](C)c1ccccc1)[C@@H](C)c1ccccc1)C(=O)CN(C(=O)CNCCCCN)[C@@H](C)c1ccccc1 [Peptoid 44] (H-[Nlys][Nspe][Nspe][Nlys][Nspe][Nspe][Nlys][Nspe][Nspe][Nlys][Nphe][Nphe]-NH2)	6.3 µM	28.6 µM	97.9 ± 3.7%			6.3 (≈ 11.3 µg/mL)	1.6 (≈ 2.87 µg/mL)				
C[C@@H](c1ccccc1)N(CC(=O)N(CCCCO)CC(=O)N(CCc1c[nH]c2ccccc12)CC(=O)N(CCc1c[nH]c2ccccc12)CC(N)=O)C(=O)CN(CCCCO)C(=O)CN(CCCCO)C(=O)CN(C(=O)CN(C(=O)CN(CCCCO)C(=O)CN(C(=O)CN(C(=O)CNCCCCO)[C@@H](C)c1ccccc1)[C@@H](C)c1ccccc1)[C@@H](C)c1ccccc1)[C@@H](C)c1ccccc1 [Peptoid 66]						>25	>25				
C[C@@H](c1ccccc1)N(CC(N)=O)C(=O)CN(CCCCN)C(=O)CN(CCCCN)C(=O)CN(C(=O)CN(C(=O)CN(CCCCN)C(=O)CN(C(=O)CN(CCc1c[nH]cn1)C(=O)CN(CCCCN)C(=O)CN(CCc1c[nH]c2ccccc12)C(=O)CN(CCc1c[nH]c2ccccc12)C(=O)CNCCCCN)[C@@H](C)c1ccccc1)[C@@H](C)c1ccccc1)[C@@H](C)c1ccccc1 [Peptoid 67] (H-[Nlys][Gly(N(CH2)2(3-indolyl))][Gly(N(CH2)2(3-indolyl))][Nlys][Gly(N-CH2CH2-imidazol-4-yl)][Nspe][Nlys][Nspe][Nspe][Nlys][Nlys][Nspe]-NH2)										>25	25 (≈ 46.4 µg/mL)
C[C@@H](c1ccccc1)N(CC(N)=O)C(=O)CN(CCCCN)C(=O)CN(CCCCN)C(=O)CN(C(=O)CN(CCc1c[nH]cn1)C(=O)CN(CCCCN)C(=O)CN(C(=O)CN(C(=O)CN(CCCCN)C(=O)CN(CCc1c[nH]c2ccccc12)C(=O)CN(CCc1c[nH]c2ccccc12)C(=O)CNCCCCN)[C@@H](C)c1ccccc1)[C@@H](C)c1ccccc1)[C@@H](C)c1ccccc1 [Peptoid 69] (H-[Nlys][Gly(N(CH2)2(3-indolyl))][Gly(N(CH2)2(3-indolyl))][Nlys][Nspe][Nspe][Nlys][Gly(N-CH2CH2-imidazol-4-yl)][Nspe][Nlys][Nlys][Nspe]-NH2)										25 (≈ 46.4 µg/mL)	25 (≈ 46.4 µg/mL)
C[C@@H](c1ccccc1)N(CC(N)=O)C(=O)CN(CCCCN)C(=O)CN(CCCCN)C(=O)CN(CCc1c[nH]cn1)C(=O)CN(C(=O)CN(CCCCN)C(=O)CN(C(=O)CN(C(=O)CN(CCCCN)C(=O)CN(CCc1c[nH]c2ccccc12)C(=O)CN(CCc1c[nH]c2ccccc12)C(=O)CNCCCCN)[C@@H](C)c1ccccc1)[C@@H](C)c1ccccc1)[C@@H](C)c1ccccc1 [Peptoid 70] (H-[Nlys][Gly(N(CH2)2(3-indolyl))][Gly(N(CH2)2(3-indolyl))][Nlys][Nspe][Nspe][Nlys][Nspe][Gly(N-CH2CH2-imidazol-4-yl)][Nlys][Nlys][Nspe]-NH2)										>25	>25
